Measured values taken from the CheMixHub ionic liquid set.

Test: xn = mol fraction of the nth substance listed

CCCC[n+]1ccn(C)c1.F[B-](F)(F)F + C1COCCO1
298.15 K, 100 kPa
Conditions	electrical conductivity [S/m]	viscosity [mPa·s]
x1 = 0.2559	0.403	6.011
x1 = 0.3956	0.395	12.17
x1 = 0.4988	0.34	19.88
x1 = 0.6	0.306	29.48
x1 = 0.7021	–	42.97
x1 = 0.8993	0.252	79.5
x1 = 1	0.243	104.7

CCCC[n+]1ccn(C)c1.F[B-](F)(F)F + C=CC(=O)OC
101 kPa, x1 = 1
Conditions	viscosity [mPa·s]
303.15 K	76.3
313.15 K	46.2

CCCC[n+]1ccn(C)c1.F[B-](F)(F)F + CC#N
Conditions	electrical conductivity [S/m]	viscosity [mPa·s]
298.15 K, 100 kPa, x1 = 0.1059	1.25	0.879
298.15 K, 100 kPa, x1 = 0.2213	1.16	2.027
298.15 K, 100 kPa, x1 = 0.3008	1.08	3.372
298.15 K, 100 kPa, x1 = 0.3894	0.782	5.548
298.15 K, 100 kPa, x1 = 0.4432	0.733	7.71
298.15 K, 100 kPa, x1 = 0.6178	0.509	18.74
298.15 K, 100 kPa, x1 = 0.7111	0.374	26.09
298.15 K, 100 kPa, x1 = 0.8146	0.338	41.69
298.15 K, 100 kPa, x1 = 0.9113	0.252	68.51
298.15 K, 100 kPa, x1 = 1	0.243	104.7
298.15 K, 101 kPa, x2 = 0	0.194	116
298.15 K, 101 kPa, x2 = 0.0956	0.278	80
298.15 K, 101 kPa, x2 = 0.2023	0.453	50.9
298.15 K, 101 kPa, x2 = 0.3174	0.672	31
298.15 K, 101 kPa, x2 = 0.4034	0.91	20.9
298.15 K, 101 kPa, x2 = 0.5137	1.34	11.9
298.15 K, 101 kPa, x2 = 0.6131	1.83	6.78
298.15 K, 101 kPa, x2 = 0.7085	2.48	3.78
298.15 K, 101 kPa, x2 = 0.8093	3.1	1.91
298.15 K, 101 kPa, x2 = 0.8631	3.21	1.32
298.15 K, 101.33 kPa, x2 = 0.3999	–	17.6
298.15 K, 101.33 kPa, x2 = 0.7988	–	1.79
298.15 K, 101.33 kPa, x2 = 0.8988	–	0.887
303.15 K, 101 kPa, x2 = 0	–	84.2
303.15 K, 101 kPa, x2 = 0.2034	–	35.6
313.15 K, 101 kPa, x2 = 0.4013	–	11.15
313.15 K, 101 kPa, x2 = 0.6018	–	4.33
323.15 K, 101 kPa, x2 = 0	–	35.5
323.15 K, 101 kPa, x2 = 0.3011	–	12.61
323.15 K, 101 kPa, x2 = 0.5	–	5.7
323.15 K, 101 kPa, x2 = 0.7997	–	1.221

CCCC[n+]1ccn(C)c1.O=C([O-])C(F)(F)F + CC#N
298.15 K, 101 kPa, x2 = 0.2556
Conditions	electrical conductivity [S/m]	viscosity [mPa·s]
–	0.84	24.6

CCC[N+]1(C)CCCC1.O=S(=O)([N-]S(=O)(=O)C(F)(F)F)C(F)(F)F + CC#N
electrical conductivity [S/m], 101 kPa, frequency 0.0005 MHz
Conditions	278.15 K	288.15 K	298.15 K	308.15 K	318.15 K	328.15 K
x1 = 0.03242	2.26	2.44	2.63	2.78	2.91	3.13
x1 = 0.09134	2.76	3.03	3.31	3.54	3.77	3.92
x1 = 0.2317	2.01	2.35	2.69	2.97	3.28	3.53

viscosity [mPa·s], 101 kPa
Conditions	278.15 K	288.15 K	298.15 K	308.15 K	318.15 K	328.15 K	338.15 K	348.15 K	358.15 K
x1 = 0.03242	0.649	0.581	0.516	0.46	0.405	–	–	–	–
x1 = 0.09134	1.145	0.993	0.877	0.797	0.706	0.621	–	–	–
x1 = 0.2317	3.57	2.91	2.44	2.079	1.798	1.592	–	–	–
x1 = 1	163.6	96.2	60.6	40.8	28.9	21.3	16.29	12.82	10.34
